IC50, EC50 and Emax data for eleven compounds are collected here from US12338199B2, “Bis-octahydrophenanthrene carboxamides and protein conjugates thereof” (REGENERON PHARMACEUTICALS, INC., priority 2017, dated 2025).

Counter-ions that a name gives are not always drawn. Where only a bound is given, the exact number is not on record here.

The IC50 is the point on the concentration scale where inhibition reaches its midpoint.

For one test, the target named is T1, LXR alpha (Homo sapiens, UniProt Q13133).
T1 construct: LXR alpha or beta LBD-GST; purchased ThermoFisher PV4655
T1 sequence (Q13133 209-447 limits assumed): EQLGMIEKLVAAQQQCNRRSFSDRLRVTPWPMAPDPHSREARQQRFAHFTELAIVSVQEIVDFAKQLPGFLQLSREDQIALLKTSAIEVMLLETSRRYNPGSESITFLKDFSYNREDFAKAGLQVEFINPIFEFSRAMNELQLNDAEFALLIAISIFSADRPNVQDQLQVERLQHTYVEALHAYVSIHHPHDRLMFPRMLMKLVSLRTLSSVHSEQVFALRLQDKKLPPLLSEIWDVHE
Kind of test: LanthaScreen TR-FRET LXR alpha Coactivator Assay (cell-free binding). The settings on record: TR-FRET, 12-point curve; read-out: Cell free binding LXRα IC50. The protocol: (§1) To evaluate the ability of novel LXR agonists to bind to the LXR alpha and beta receptor, a cell-free binding assay was performed using a LanthaScreen TR-FRET LXR alpha Coactivator Assay Kit (ThermoFisher, Cat # PV4655) and LXR beta Coactivator Assay Kit (ThermoFisher, Cat # PV4658). The assay was performed according to the manufacturer's instructions. Briefly, a 3-fold serial dilution of LXR agonists were prepared in 100% DMSO starting at 100 μM (100× of final). Serial dilutions were further diluted 50-fold in nuclear receptor buffer F with 5 mM DTT, and transferred to a 384-well assay plate. Next, Fluorescein-D22, LXR alpha or beta LBD-GST, and Tb anti-GST antibody was sequentially added to 384-well assay plate. The plate was then incubated at rt for 2.5 hours while being protected from light. […] The IC50 values were determined using a four-parameter logistic equation over a 12-point response curve (GraphPad Prism).
In general terms: Time-resolved FRET reads energy transfer from a long-lived donor to a nearby acceptor.

The next test addresses T2, LXR beta (Homo sapiens, UniProt P55055).
T2 construct: LXR alpha or beta LBD-GST; purchased ThermoFisher PV4658
T2 sequence (P55055 222-460 limits assumed): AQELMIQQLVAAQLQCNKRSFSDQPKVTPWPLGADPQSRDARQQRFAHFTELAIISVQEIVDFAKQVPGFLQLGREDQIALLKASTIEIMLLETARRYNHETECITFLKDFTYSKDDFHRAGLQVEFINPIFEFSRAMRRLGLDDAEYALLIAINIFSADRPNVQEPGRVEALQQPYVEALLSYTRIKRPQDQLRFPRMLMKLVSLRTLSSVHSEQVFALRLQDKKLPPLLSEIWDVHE
Kind of test: LanthaScreen TR-FRET LXR beta Coactivator Assay (cell-free binding). Particulars: TR-FRET, 12-point curve; read-out: Cell free binding LXRβ IC50. How it is done:
as §1

The next test deals with THP1/LXR-Luc cells. Kind of test: THP1/LXR-Luc luciferase reporter bioassay. Type of test: cell-based. The settings on record: Homo sapiens, THP-1, 48 hours; for EC50: read-out: Activation of THP1/LXR-Luc cells: EC50; for Emax: relative to maximum activation of free payload 9d, read-out: Activation of THP1/LXR-Luc cells: Fold of activation. From the text: The fold activation in the cell-based assays (as described in Example 68, below) was defined based on the maximum activation of the free payload 9d.
A bioassay was developed to assess the activity of LXR agonists after internalization of an agonist or of a ncADC into cells and binding to LXR, a nuclear receptor, using a commercially available LXR reporter (referred to as LXR-Luc) that contains the firefly luciferase gene under control by minimal CMV promoter and tandem repeats of the LXR transcriptional response element. For this assay, a THP1 cell line, which is a human monocytic leukaemia line, was engineered to express full length human Her2 (expressing amino acids M1 through V1255 of accession number NP_004439.2). The subsequent stable cell line was further transduced with a Cignal LXR Luc Reporter (Qiagen, Cat # CLS-7041L). The resulting stable cell line is referred to herein as THP1/Her2/LXR-Luc. The Her2 cell surface expression on THP1/Her2/LXR-Luc cell line was confirmed by FACS (data not shown).
Additionally, a THP1 cell line was transduced with a Cignal LXR Luc Reporter (Qiagen, Cat # CLS-7041L) without the addition of Her2. The resulting stable cell line is referred to herein as THP1/LXR-Luc. All of the antibodies used in the subsequent bioassays were assessed for their ability to internalize and release a payload on the bioassay cell line used.
This example assessed the ability of the LXR agonists provided herein, reference compounds, and anti-Her2 antibody-LXR ncADC to activate LXR. The samples were tested in the THP1/LXR-Luc/Her2 bioassay. For the assay, either THP1/LXR-Luc cells or THP1/LXR-Luc/Her2 cells were seeded onto white 96 well plates at 30,000 cells/well in media containing RPMI supplemented with 10% FBS and pencillin/streptomycin (complete media). Subsequently 3-fold serial dilutions of antibody drug conjugates, unconjugated antibodies, or free payloads were added to the cells at final concentration ranging from 100 nM to 0.01 nM. After 48-hour or 72-hour incubation, luciferase activity was determined after the addition of One-Glo™ reagent (Promega, Cat # E6130) to each well of cells. Relative light units (RLUs) were measured on a Victor luminometer (PerkinElmer) and the EC5o values were determined using a four-parameter logistic equation over a 10-point dose response curve (GraphPad Prism) (FIG. 15). The fold activation is calculated based on the maximum activation of the free payload 9d.
For orientation: A reporter such as luciferase makes a cellular process visible.

As to `C[C@]1(C(=O)NC(=O)[C@@]2(C)CCC[C@]3(C)c4cc(NC(=O)[C@@H](N)CC(=O)O)ccc4CC[C@@H]23)CCC[C@]2(C)c3cc(O)ccc3CC[C@@H]12` [Compound 9n, (3S)-3-Amino-3-{[(4bS,8S,8aR)-8-{[(1S,4aS,10aR)-6-hydroxy-1,4a-dimethyl-1,2,3,4,4a,9,10,10a-octahydrophenanthrene-1-carbonyl]carbamoyl}-4b,8-dimethyl-4b,5,6,7,8,8a,9,10-octahydrophenanthren-3-yl]carbamoyl}propanoic Acid], the IC50 on LXR alpha lay within 10 to 100 nM. The IC50 at LXR beta is below 10 nM. In addition, in the test with THP1/LXR-Luc cells, the EC50 was at most 1 nM and the Emax is above 75%.

As to `C[C@]1(C(=O)NC(=O)[C@@]2(C)CCC[C@]3(C)c4cc(NC(=O)CNCC(=O)O)ccc4CC[C@@H]23)CCC[C@]2(C)c3cc(O)ccc3CC[C@@H]12` [Compound 9r, 2-[({[(4bS,8S,8aR)-8-{[(1S,4aS,10aR)-6-Hydroxy-1,4a-dimethyl-1,2,3,4,4a,9,10,10a-octahydrophenanthrene-1-carbonyl]carbamoyl}-4b,8-dimethyl-4b,5,6,7,8,8a,9,10-octahydrophenanthren-3-yl]carbamoyl}methyl)amino]acetic Acid; Trifluoroacetic Acid Salt], the IC50 on LXR alpha was below 10 nM. Moreover, the IC50 at LXR beta is below 10 nM. Moreover, in the test on THP1/LXR-Luc cells, the EC50 fell in the range of 10 to 100 nM and the Emax is above 75%.

`C[C@]1(C(=O)NC(=O)[C@@]2(C)CCC[C@]3(C)c4cc(O)ccc4CC[C@@H]23)CCC[C@]2(C)c3cc(O)ccc3CC[C@@H]12` [Compound 9a, (1S,4aS,10aR)-6-Hydroxy-N-((1S,4aS,10aR)-6-hydroxy-1,4a-dimethyl-1,2,3,4,4a,9,10,10a-octahydrophenanthrene-1-carbonyl)-1,4a-dimethyl-1,2,3,4,4a,9,10,10a-octahydrophenanthrene-1-carboxamide]: in the test with THP1/LXR-Luc cells, the EC50 lay in the range of 1 to 10 nM and the Emax is above 75%.

Consider `C[C@]1(C(=O)NC(=O)[C@@]2(C)CCC[C@]3(C)c4cc(OCCO)ccc4CC[C@@H]23)CCC[C@]2(C)c3cc(O)ccc3CC[C@@H]12` [Compound 9b, (1S,4aS,10aR)-6-Hydroxy-N-((1S,4aS,10aR)-6-(2-hydroxyethoxy)-1,4a-dimethyl-1,2,3,4,4a,9,10,10a-octahydrophenanthrene-1-carbonyl)-1,4a-dimethyl-1,2,3,4,4a,9,10,10a-octahydrophenanthrene-1-carboxamide], for which the IC50 on LXR alpha and on LXR beta was below 10 nM throughout. The EC50 in the test on THP1/LXR-Luc cells lay in the range of 1 to 10 nM. The Emax in the test on THP1/LXR-Luc cells is above 75%.

`C[C@]1(C(=O)NC(=O)[C@@]2(C)CCC[C@]3(C)c4cc(CN)ccc4CC[C@@H]23)CCC[C@]2(C)c3cc(O)ccc3CC[C@@H]12` [Compound 9p, (1S,4aS,10aR)-6-(Aminomethyl)-N-((1S,4aS,10aR)-6-hydroxy-1,4a-dimethyl-1,2,3,4,4a,9,10,10a-octahydrophenanthrene-1-carbonyl)-1,4a-dimethyl-1,2,3,4,4a,9,10,10a-octahydrophenanthrene-1-carboxamide; Trifluoroacetic Acid Salt]: at LXR alpha, the IC50 was 10 to 100 nM. For the same compound, the IC50 on LXR beta is below 10 nM. Moreover, in the test with THP1/LXR-Luc cells, the EC50 fell in the range of 1 to 10 nM and the Emax is above 75%.

In the case of `C[C@]1(C(=O)NC(=O)[C@@]2(C)CCC[C@]3(C)c4cc(NC(=O)CCN)ccc4CC[C@@H]23)CCC[C@]2(C)c3cc(O)ccc3CC[C@@H]12` [Compound 9i, (1S,4aS,10aR)-6-(3-Aminopropanamido)-N-((1S,4aS,10aR)-6-hydroxy-1,4a-dimethyl-1,2,3,4,4a,9,10,10a-octahydrophenanthrene-1-carbonyl)-1,4a-dimethyl-1,2,3,4,4a,9,10,10a-octahydrophenanthrene-1-carboxamide], the IC50 at LXR alpha and at LXR beta was below 10 nM in each case. The EC50 with THP1/LXR-Luc cells fell in the range of 10 to 100 nM. Moreover, the Emax with THP1/LXR-Luc cells was in the range of 25 to 75%.

Regarding `CNCC(=O)Nc1ccc2c(c1)[C@@]1(C)CCC[C@](C)(C(=O)NC(=O)[C@@]3(C)CCC[C@]4(C)c5cc(O)ccc5CC[C@@H]34)[C@@H]1CC2` [Compound 9k, (1S,4aS,10aR)—N-((1S,4aS,10aR)-1,4a-Dimethyl-6-(2-(methylamino)acetamido)-1,2,3,4,4a,9,10,10a-octahydrophenanthrene-1-carbonyl)-6-hydroxy-1,4a-dimethyl-1,2,3,4,4a,9,10,10a-octahydrophenanthrene-1-carboxamide; Trifluoroacetic Acid Salt], the figures for the half-inhibitory concentration (IC50) on LXR alpha and on LXR beta were 10 to 100 nM and below 10 nM, respectively. In the test with THP1/LXR-Luc cells, the EC50 lay within 1 to 10 nM. Also, the Emax in the test with THP1/LXR-Luc cells is above 75%.

Take `CN(C)c1ccc2c(c1)[C@@]1(C)CCC[C@](C)(C(=O)NC(=O)[C@@]3(C)CCC[C@]4(C)c5cc(O)ccc5CC[C@@H]34)[C@@H]1CC2` [Compound 9f, (1S,4aS,10aR)-6-(Dimethylamino)-N-((1S,4aS,10aR)-6-hydroxy-1,4a-dimethyl-1,2,3,4,4a,9,10,10a-octahydrophenanthrene-1-carbonyl)-1,4a-dimethyl-1,2,3,4,4a,9,10,10a-octahydrophenanthrene-1-carboxamide]: the IC50 at LXR alpha was below 10 nM. Also, the IC50 at LXR beta was below 10 nM. In the test on THP1/LXR-Luc cells, the EC50 was in the range of 1 to 10 nM and the Emax was above 75%.

As to `C[C@]1(C(=O)NC(=O)[C@@]2(C)CCC[C@]3(C)c4cc(N5CCNCC5)ccc4CC[C@@H]23)CCC[C@]2(C)c3cc(O)ccc3CC[C@@H]12` [Compound 9e, (1S,4aS,10aR)—N-((1S,4aS,10aR)-1,4a-Dimethyl-6-(piperazin-1-yl)-1,2,3,4,4a,9,10,10a-octahydrophenanthrene-1-carbonyl)-6-hydroxy-1,4a-dimethyl-1,2,3,4,4a,9,10,10a-octahydrophenanthrene-1-carboxamide], on LXR alpha, the IC50 was below 10 nM. In addition, the half-maximal inhibitory concentration (IC50) at LXR beta is below 10 nM. Further, in the test on THP1/LXR-Luc cells, the EC50 is 1 to 10 nM and the Emax is above 75%.

For `C[C@]1(CNC(=O)[C@@]2(C)CCC[C@]3(C)c4cc(O)ccc4CC[C@@H]23)CCC[C@]2(C)c3cc(O)ccc3CC[C@@H]12` [Compound 9u, (1S,4aS,10aR)—N-{[(1S,4aS,10aR)-6-Hydroxy-1,4a-dimethyl-1,2,3,4,4a,9,10,10a-octahydrophenanthren-1-yl]methyl}-6-hydroxy-1,4a-dimethyl-1,2,3,4,4a,9,10,10a-octahydrophenanthrene-1-carboxamide], in the test on THP1/LXR-Luc cells, the EC50 lay in the range of 1 to 10 nM and the Emax is 25 to 75%.

As for `O=S(=O)(c1ccccc1)N(CC(F)(F)F)c1ccc(C(O)(C(F)(F)F)C(F)(F)F)cc1` [Compound T0901317, reference compound], in the test with THP1/LXR-Luc cells, the EC50 was in the range of 10 to 100 nM and the Emax was above 75%.
